From patent US8952169B2 (Genentech, Inc., priority 2012, dated 2015)

Target: hNav1.7 (Homo sapiens (Human), UniProt Q15858)
Assay: Tritiated aryl sulfonamide binding to membranes from cells expressing hNav1.7 and the β1 subunit (competitive binding)
Settings: membranes with hNav1.7 and β1 subunit; [3H]compound displacement, 18 h, room temperature; read-out: NaV1.7 395 Memb Binding (IC50)
Procedure: Tritiated Aryl Sulfonamide Binding to Membranes Isolated from Cells that Heterologously Express hNav1.7 and the β1 Subunit
Preparation of membranes containing recombinantly expressed sodium channels: Frozen recombinant cell pellets were thawed on ice and diluted to 4 times the cell pellet weight with ice cold 50 mM Tris HCl, pH 7.4 buffer. The cell suspensions were homogenized on ice using a motorized glass dounce homogeniser. Homogenates were further diluted 8.4 times with ice cold 50 mM Tris HCl, pH 7.4 buffer and then centrifuged at 200×g at 4° C. for 15 min. The supernatants were collected and centrifuged at 10000×g at 4° C. for 50 min. The pellets were then re-suspended in 100 mM NaCl, 20 mM Tris HCl, pH 7.4 buffer containing 1% v/v protease inhibitors (Calbiochem) and re-homogenized on ice. The homogenized membranes were then processed through a syringe equipped with a 26 gauge needle. Protein concentrations were determined by Bradford Assay and the membranes were stored at −80° C.
Radioligand Binding Studies: Saturation experiments. A representative compound of formula (I) was tritiated. Three tritiums were incorporated in place of methyl hydrogens to generate [^3H]compound. Binding of this radioligand was preformed in 5 mL borosilicate glass test tubes at room temperature. Binding was initiated by adding membranes to increasing concentrations of [^3H]compound in 100 mM NaCl, 20 mM Tris HCl, pH 7.4 buffer containing 0.01% w/v bovine serum albumin (BSA) for 18 h. Non-specific binding was determined in the presence of 1 μM unlabelled compound. After 18 h, the reactants were filtered through GF/C glass fiber filters presoaked in 0.5% w/v polyethylene imine. […] [^3H]compound bound to filters was quantified by liquid scintillation counting.
Competitive binding experiments. Binding reactions were preformed in 96-well polypropylene plates at room temperature for 18 h. In 360 μL, membranes were incubated with 100 μM [^3H]compound and increasing concentrations of Test Compound. Non-specific binding was defined in the presence of 1 μM unlabelled compound. Reactions were transferred and filtered through 96-well glass fiber/C filter plates presoaked with 0.5% polyethylene imine. The filtered reactions were washed 5 times with 200 L ice cold buffer containing 0.25% BSA. Bound radioactivity was determined by liquid scintillation counting.
Data Analysis: For saturation experiments, non-specific binding was subtracted from total binding to provide specific binding and these values were recalculated in terms of pmol ligand bound per mg protein. Saturation curves were constructed and dissociation constants were calculated using the single site ligand binding model: Beq=(Bmax*X)/(X+Kd), where Beq is the amount of ligand bound at equilibrium, Bmax is the maximum receptor density, Kd is the dissociation constant for the ligand, and X is the free ligand concentration.

hNav1.7, sequence (Q15858 whole entry, looked up): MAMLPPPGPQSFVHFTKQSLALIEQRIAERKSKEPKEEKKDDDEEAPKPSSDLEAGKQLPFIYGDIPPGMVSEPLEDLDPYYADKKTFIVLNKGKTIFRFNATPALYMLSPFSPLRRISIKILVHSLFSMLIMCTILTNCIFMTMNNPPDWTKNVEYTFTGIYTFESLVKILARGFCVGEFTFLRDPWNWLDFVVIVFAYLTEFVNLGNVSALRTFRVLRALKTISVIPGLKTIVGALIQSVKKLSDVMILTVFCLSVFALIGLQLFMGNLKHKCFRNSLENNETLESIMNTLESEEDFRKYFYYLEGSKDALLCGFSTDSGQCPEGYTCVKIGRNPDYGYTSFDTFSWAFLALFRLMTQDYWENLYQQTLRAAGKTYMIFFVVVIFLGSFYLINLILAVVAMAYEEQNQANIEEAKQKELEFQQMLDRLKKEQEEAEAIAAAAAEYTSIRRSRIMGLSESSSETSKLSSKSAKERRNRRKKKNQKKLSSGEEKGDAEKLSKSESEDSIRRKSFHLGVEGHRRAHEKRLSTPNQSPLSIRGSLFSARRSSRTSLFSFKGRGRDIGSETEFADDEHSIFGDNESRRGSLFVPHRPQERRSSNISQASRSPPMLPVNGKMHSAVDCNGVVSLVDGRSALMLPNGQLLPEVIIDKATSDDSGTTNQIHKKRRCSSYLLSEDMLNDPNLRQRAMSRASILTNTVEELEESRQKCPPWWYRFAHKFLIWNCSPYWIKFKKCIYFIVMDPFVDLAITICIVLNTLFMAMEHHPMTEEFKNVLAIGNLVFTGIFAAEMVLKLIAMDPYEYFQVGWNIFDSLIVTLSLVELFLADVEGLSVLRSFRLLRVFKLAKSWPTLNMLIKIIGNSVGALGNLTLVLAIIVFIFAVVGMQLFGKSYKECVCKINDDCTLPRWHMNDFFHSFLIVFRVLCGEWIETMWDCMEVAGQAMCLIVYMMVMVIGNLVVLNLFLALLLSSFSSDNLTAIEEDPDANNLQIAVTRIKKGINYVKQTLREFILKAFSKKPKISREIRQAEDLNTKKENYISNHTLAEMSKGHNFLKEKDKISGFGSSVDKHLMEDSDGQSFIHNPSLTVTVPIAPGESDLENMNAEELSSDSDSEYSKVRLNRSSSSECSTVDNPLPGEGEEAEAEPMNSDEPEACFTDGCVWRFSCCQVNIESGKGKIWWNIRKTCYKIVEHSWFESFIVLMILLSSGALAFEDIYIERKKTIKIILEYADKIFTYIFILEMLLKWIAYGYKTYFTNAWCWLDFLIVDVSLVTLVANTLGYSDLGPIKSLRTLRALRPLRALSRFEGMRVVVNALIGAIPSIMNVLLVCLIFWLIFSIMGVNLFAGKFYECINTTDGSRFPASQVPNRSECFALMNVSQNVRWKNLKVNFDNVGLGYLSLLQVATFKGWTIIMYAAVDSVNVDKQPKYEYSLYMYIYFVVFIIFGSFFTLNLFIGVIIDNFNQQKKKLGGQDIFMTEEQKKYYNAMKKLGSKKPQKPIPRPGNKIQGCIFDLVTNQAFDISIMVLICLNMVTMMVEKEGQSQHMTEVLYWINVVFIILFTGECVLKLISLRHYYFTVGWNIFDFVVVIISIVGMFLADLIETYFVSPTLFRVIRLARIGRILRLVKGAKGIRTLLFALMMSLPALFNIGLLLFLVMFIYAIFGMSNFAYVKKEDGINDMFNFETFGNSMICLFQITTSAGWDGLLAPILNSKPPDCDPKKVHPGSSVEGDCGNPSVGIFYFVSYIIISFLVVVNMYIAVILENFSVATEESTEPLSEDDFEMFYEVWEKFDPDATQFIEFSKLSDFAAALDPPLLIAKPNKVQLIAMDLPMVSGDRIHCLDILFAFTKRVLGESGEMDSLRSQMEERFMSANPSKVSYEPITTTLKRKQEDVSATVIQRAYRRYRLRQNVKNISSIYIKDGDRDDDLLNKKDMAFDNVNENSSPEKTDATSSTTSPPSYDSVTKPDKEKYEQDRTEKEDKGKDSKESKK
hNav1.7, sequence (Q07699 whole entry partner, looked up): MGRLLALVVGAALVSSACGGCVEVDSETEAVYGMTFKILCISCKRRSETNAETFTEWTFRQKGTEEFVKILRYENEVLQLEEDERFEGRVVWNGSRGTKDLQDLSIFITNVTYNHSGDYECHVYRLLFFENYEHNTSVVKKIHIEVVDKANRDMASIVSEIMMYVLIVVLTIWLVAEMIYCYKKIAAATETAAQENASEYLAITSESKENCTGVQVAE

| Compound | IC50 |
| --- | --- |
| CC(C)(C)OC(=O)N1CCCC(COc2cc(F)c(C(=O)NS(C)(=O)=O)cc2F)C1 (stereo not shown) | 9.99 µM |
| COC12CC3CC(CC(COc4cc(F)c(C(=O)NS(C)(=O)=O)cc4C4CC4)(C3)C1)C2 | 0.012 µM |
| CS(=O)(=O)NC(=O)c1cc(C2CC2)c(OCC2CCC3(CC2)CC3)cc1F | 0.002 µM |
| CS(=O)(=O)NC(=O)c1cc(Cl)c(OCC23CC4CC(CC(F)(C4)C2)C3)cc1F | 0.12 µM |
| CS(=O)(=O)NC(=O)c1ccc(OCC23CC4CC(CC(F)(C4)C2)C3)cc1F | 1.64 µM |
| CS(=O)(=O)NC(=O)c1ccc(OCC2CCC3(CC2)CC3)cc1F | 0.152 µM |
| CS(=O)(=O)NC(=O)c1cc(Cl)c(O[C@H]2C3CC4CC2C[C@](F)(C4)C3)cc1F | 0.12 µM |
| CNS(=O)(=O)NC(=O)c1ccc(C2C3CC4CC(C3)CC2C4)c(Cl)c1 (stereo not shown) | 1.7 µM |
| CS(=O)(=O)NC(=O)c1cc(C2CC2)c(OCC2(F)C3CC4CC(C3)CC2C4)cc1F (stereo not shown) | 0.004 µM |
| CS(=O)(=O)NC(=O)c1cnc(OCC23CC4(F)CC(F)(CC(F)(C4)C2)C3)c(Cl)c1 | 21.5 µM |
| CNS(=O)(=O)NC(=O)c1cc(C2CC2)c(OCC2CCCCC2)cc1F | 0.012 µM |
| COCCS(=O)(=O)NC(=O)c1cc(Cl)c(OCC2(C#N)C3CC4CC(C3)CC2C4)cc1F (stereo not shown) | 0.99 µM |
| CNS(=O)(=O)NC(=O)c1cc(Cl)c(OCC2(C#N)C3CC4CC(C3)CC2C4)cc1F (stereo not shown) | 0.88 µM |
| CS(=O)(=O)NC(=O)c1cc(Cl)c(OCC2(C#N)C3CC4CC(C3)CC2C4)cc1F (stereo not shown) | 0.31 µM |
| CS(=O)(=O)NC(=O)c1cc(C2CC2)c(OCC2C3CC4CC(C3)CC2C4)cc1F (stereo not shown) | 0.0031 µM |
| COCCS(=O)(=O)NC(=O)c1cc(C2CC2)c(OCC2C3CC4CC(C3)CC2C4)cc1F (stereo not shown) | 0.005 µM |
| O=C(NS(=O)(=O)CCO)c1cc(C2CC2)c(OCC2CCCCC2)cc1F | 0.066 µM |
| CS(=O)(=O)NC(=O)c1ccc(OCCC23CC4CC(CC(C4)C2)C3)c(Cl)c1 | 0.09 µM |
| CS(=O)(=O)NC(=O)c1cc(C2CC2)c(OCC2(C#N)C3CC4CC(C3)CC2C4)cc1F (stereo not shown) | 0.022 µM |
| O=C(NS(=O)(=O)N1CC[C@H](O)C1)c1cc(C2CC2)c(OCC2CCCCC2)cc1F | 0.16 µM |
| O=C(NS(=O)(=O)N1CCOCC1)c1cc(C2CC2)c(O[C@H]2C3CC4CC2C[C@](Cl)(C4)C3)cc1F | 0.016 µM |
| CNS(=O)(=O)NC(=O)c1cc(C2CC2)c(OCC2(C#N)C3CC4CC(C3)CC2C4)cc1F (stereo not shown) | 0.043 µM |
| CS(=O)(=O)NC(=O)c1cc(Cl)c(Oc2ccc3c(c2)CCCC3)cc1F | 0.19 µM |
| COCCS(=O)(=O)NC(=O)c1cc(C2CC2)c(OCC2(C(F)(F)F)CCCCC2)cc1F | 0.03 µM |
| O=C(NS(=O)(=O)N1CCC1)c1cc(C2CC2)c(OCC2CCCC2)cc1F | 0.036 µM |

| Compound | IC50 |
| --- | --- |
| O=C(NS(=O)(=O)N1CCC1)c1cc(Cl)c(OCC2(C(F)(F)F)CCCC2)cc1F | 0.03 µM |
| CC1(COc2cc(F)c(C(=O)NS(=O)(=O)N3CCC3)cc2C2CC2)CCCCC1 | 0.003 µM |
| CNS(=O)(=O)NC(=O)c1cc(C2CC2)c(OCC2(C(F)(F)F)CCCCC2)cc1F | 0.02 µM |
| CNS(=O)(=O)NC(=O)c1cc(C2CC2)c(OCC2CCC(F)(F)CC2)cc1F | 0.13 µM |
| CC1(COc2cc(F)c(C(=O)NS(C)(=O)=O)cc2C2CC2)CCC(F)(F)CC1 | 0.018 µM |
| O=C(NS(=O)(=O)C1CC1)c1cc(C2CC2)c(OCC2CC3CC3C2)cc1F (stereo not shown) | 0.011 µM |
| [2H]C1([2H])C([2H])([2H])C([2H])([2H])C([2H])(COc2cc(F)c(C(=O)NS(C)(=O)=O)cc2Cl)C([2H])([2H])C1([2H])[2H] | 0.21 µM |
| CS(=O)(=O)NC(=O)c1cc(Cl)c(C(=O)NC23CC4CC(CC(C4)C2)C3)cc1F | 10 µM |
| CC1(C)C(COc2cc(F)c(C(=O)NS(C)(=O)=O)cc2Cl)C1(C)C | 10 µM |
| CS(=O)(=O)NC(=O)c1cc(Cl)c(OCC2CCCCC2)cc1F | 0.14 µM |
| CS(=O)(=O)NC(=O)c1cc(Cl)c(OCCC2CCCC2)cc1F | 0.14 µM |
| O=C(NS(=O)(=O)N1CCC1)c1cc(Cl)c(OCC2CC3C(C2)C3(F)F)cc1F (stereo not shown) | 0.2 µM |
| CN(C)S(=O)(=O)NC(=O)c1cc(Cl)c(OC2C3CC4CC(C3)CC2C4)cc1F (stereo not shown) | 0.19 µM |
| COC12CC3CC(CC(COc4cc(F)c(C(=O)NS(C)(=O)=O)cc4Cl)(C3)C1)C2 | 0.603 µM |
| CS(=O)(=O)NC(=O)c1cc(C2CC2)c(COC2C3CC4CC(C3)CC2C4)cc1F (stereo not shown) | 0.005 µM |
| CS(=O)(=O)NC(=O)c1cc(Cl)c(COC2C3CC4CC(C3)CC2C4)cc1F (stereo not shown) | 0.006 µM |
| CC1(C)[C@@H]2CC[C@@H](COc3cc(F)c(C(=O)NS(C)(=O)=O)cc3Cl)[C@H]1C2 | 0.058 µM |
| CNS(=O)(=O)NC(=O)c1cc(Cl)c(COc2ccc3c(c2)CC(C)(C)CC3)cc1F | 0.026 µM |
| CNS(=O)(=O)NC(=O)c1cc(Cl)c(COc2ccc3c(c2)CCC(C)(C)C3)cc1F | 0.065 µM |
| CNS(=O)(=O)NC(=O)c1cc(Cl)c(COc2ccc3c(c2)CCC(C)(C)O3)cc1F | 0.17 µM |
| CNS(=O)(=O)NC(=O)c1cc(Cl)c(COc2ccc3c(c2)OC(C)(C)CC3)cc1F | 0.18 µM |
| Cc1nnn(C23CC4CC(CC(COc5cc(F)c(C(=O)NS(C)(=O)=O)cc5Cl)(C4)C2)C3)n1 | 0.77 µM |
| CN(C)S(=O)(=O)NC(=O)c1cc(Cl)c(COc2ccc3c(c2)OC(C)(C)CC3)cc1F | 0.19 µM |
| CN(C)S(=O)(=O)NC(=O)c1cc(Cl)c(COc2ccc3c(c2)CCC(C)(C)C3)cc1F | 0.086 µM |
| CCCCCC12CCC(COc3cc(F)c(C(=O)NS(=O)(=O)N(C)C)cc3Cl)(CC1)CC2 | 0.033 µM |

Next, values leading:

| IC50 | Compound |
| --- | --- |
| 0.003 µM | CS(=O)(=O)NC(=O)c1cc(C2CC2)c(OCC23CC4CC(CC(F)(C4)C2)C3)cc1F |
| 0.01 µM | Cc1cc(C(=O)NS(=O)(=O)N2CCC2)c(F)cc1OCC12CC3CC(CC(C3)C1)C2 |
| 0.001 µM | CCS(=O)(=O)NC(=O)c1cc(C2CC2)c(OCC23CC4CC(CC(C4)C2)C3)cc1F |
| 0.003 µM | CC(C)(C)S(=O)(=O)NC(=O)c1cc(C2CC2)c(OCC23CC4CC(CC(C4)C2)C3)cc1F |
| 0.012 µM | COCCNS(=O)(=O)NC(=O)c1cc(C2CC2)c(OCC23CC4CC(CC(C4)C2)C3)cc1F |
| 0.07 µM | O=C(NS(=O)(=O)N1CCC1)c1cc(C2(O)COC2)c(OCC23CC4CC(CC(C4)C2)C3)cc1F |
| 0.008 µM | CS(=O)(=O)NC(=O)c1cc(I)c(OCC23CC4CC(CC(C4)C2)C3)cc1F |
| 0.012 µM | CCOCCS(=O)(=O)NC(=O)c1cc(C2CC2)c(OCC23CC4CC(CC(C4)C2)C3)cc1F |
| 0.022 µM | COCCCS(=O)(=O)NC(=O)c1cc(C2CC2)c(OCC23CC4CC(CC(C4)C2)C3)cc1F |
| 0.04 µM | CC(C)OCCS(=O)(=O)NC(=O)c1cc(C2CC2)c(OCC23CC4CC(CC(C4)C2)C3)cc1F |
| 0.54 µM | CS(=O)(=O)NC(=O)c1cc(Cl)c(OCC23CC4CC(CC(C4)C2)C3)c(Cl)c1 |
| 0.012 µM | N#CC1CN(S(=O)(=O)NC(=O)c2cc(C3CC3)c(OCC34CC5CC(CC(C5)C3)C4)cc2F)C1 |
| 0.012 µM | CC(O)c1cc(C(=O)NS(=O)(=O)N2CCC2)c(F)cc1OCC12CC3CC(CC(C3)C1)C2 (stereo not shown) |
| 0.06 µM | CC(=O)c1cc(C(=O)NS(=O)(=O)N2CCC2)c(F)cc1OCC12CC3CC(CC(C3)C1)C2 |
| 0.63 µM | O=C(NS(=O)(=O)N1CCC2(CC1)COC2)c1cc(C2CC2)c(OCC23CC4CC(CC(C4)C2)C3)cc1F |
| 0.08 µM | O=C(NS(=O)(=O)N1CCC1)c1cc(C2CC2)c(OCC23CC4CC(CC(CO)(C4)C2)C3)cc1F |
| 0.035 µM | O=C(NS(=O)(=O)N1CCC1)c1cc(C2CC2)c(OCC23CC4CC(C2)CC(OC(=O)C(F)(F)F)(C4)C3)cc1F |
| 0.036 µM | CC(C)(F)c1cc(C(=O)NS(=O)(=O)N2CCC2)c(F)cc1OCC12CC3CC(CC(C3)C1)C2 |
| 0.04 µM | O=C(NS(=O)(=O)N1CC2(CCO2)C1)c1cc(C2CC2)c(OCC23CC4CC(CC(C4)C2)C3)cc1F |
| 0.009 µM | CS(=O)(=O)NC(=O)c1ccc(OCC23CC4CC(CC(C4)C2)C3)c(C2CCC2)c1 |
| 0.0021 µM | CNS(=O)(=O)NC(=O)c1cc(C2CC2)c(OCC23CC4CC(CC(C4)C2)C3)cc1F |
| 0.13 µM | O=C(NS(=O)(=O)CCO)c1cc(Cl)c(OCC23CC4CC(CC(C4)C2)C3)cc1F |
| 0.097 µM | CNS(=O)(=O)NC(=O)c1cc(Cl)c(OCC23CC4CC(CC(C4)C2)C3)cc1F |
| 0.021 µM | O=C(NS(=O)(=O)N1CCC1)c1cc(Cl)c(OCC23CC4CC(CC(C4)C2)C3)cc1F |
| 0.19 µM | O=C(NS(=O)(=O)c1c[nH]cn1)c1cc(Cl)c(OCC23CC4CC(CC(C4)C2)C3)cc1F |
| 0.055 µM | O=C(NS(=O)(=O)N1CCOCC1)c1cc(Cl)c(OCC23CC4CC(CC(C4)C2)C3)cc1F |
